Measurements reported in patent publication US10980889B1 (Revolution Medicines, Inc., priority 2018, dated 2021).

What was measured:
Settings in all cases: AlphaLisa, two to four hours at 37° C.
P-4E-BP1 (T37/46) = assay: Cell based AlphaLISA assay, inhibition of P-4E-BP1 (T37/46) in MDA-MB-468 cells (mTORC1 substrate)
Protocol: (§1) Cell Based AlphaLISA Assays For Determining IC50 For Inhibition of P-Akt (S473), P-4E-BP1(T37/46), and P-P70S6K (T389) in MDA-MB-468 Cells
(§2) mTOR Kinase Cellular Assay
(§3) To measure functional activity of mTORC1 and mTORC2 in cells the phosphorylation of 4EBPT (Thr37/46) and P70S6K (Thr389), and AKT1/2/3 (Ser473) was monitored using AlphaLisa SureFire Ultra Kits (Perkin Elmer). […] Incubations were terminated by removal of the assay buffer and addition of lysis buffer provided with the assay kit. Samples were processed according to the manufacturer's instructions. The Alpha signal from the respective phosphoproteinswas measured in duplicate using a microplate reader (Envision, Perkin-Elmer or Spectramax M5, Molecular Devices). Inhibitor concentration response curves were analyzed using normalized IC50 regression curve filling with control based normalization.

P-Akt (S473) = assay: Cell based AlphaLISA assay, inhibition of P-Akt (S473) in MDA-MB-468 cells (mTORC2 substrate)
Protocol: as §1, §2, §3

P-P70S6K (T389) = assay: Cell based AlphaLISA assay, inhibition of P-P70S6K (T389) in MDA-MB-468 cells (mTORC1 substrate)
Protocol: as §1, §2, §3

| Compound | pIC50 for Inhibition of mTORC1 and mTORC2 Substrate Phosphorylation P-4E-BP1-(T37/46) (P-4E-BP1 (T37/46)) | pIC50 for Inhibition of mTORC1 and mTORC2 Substrate Phosphorylation p-AKT1/2/3-(S473) (P-Akt (S473)) | pIC50 for Inhibition of mTORC1 and mTORC2 Substrate Phosphorylation p-P70S6K-(T389) (P-P70S6K (T389)) |
| --- | --- | --- | --- |
| CO[C@H]1C[C@@H]2CC[C@@H](C)[C@@](O)(O2)C(=O)C(=O)N2CCCC[C@H]2C(=O)O[C@H]([C@H](C)C[C@@H]2CC[C@@H](OC(=S)NCCOCCOCCOCCOCCOCCOCCOCCOCCC(=O)N3CCc4cc(Cn5nc(-c6ccc7oc(N)nc7c6)c6c(N)ncnc65)ccc4C3)[C@H](OC)C2)C[C@@H](O)[C@H](C)/C=C(\C)[C@@H](O)[C@@H](OC)C(=O)[C@H](C)C[C@H](C)/C=C/C=C/C=C/1C [Example 77] | ++ (8.5 > pIC50 ≥ 7.5) | + (7.5 > pIC50 ≥ 6.0) | +++ (≥9) |
| CO[C@H]1C[C@@H]2CC[C@@H](C)[C@@](O)(O2)C(=O)C(=O)N2CCCC[C@H]2C(=O)O[C@H]([C@H](C)C[C@@H]2CC[C@@H](OC(=S)NCCOCCOCCOCCOCCOCCOCCOCCOCCC(=O)N3CCc4cc(Cn5nc(-c6ccc7oc(N)nc7c6)c6c(N)ncnc65)ccc4C3)[C@H](OC)C2)C[C@@H](OC)[C@H](C)/C=C(\C)[C@@H](O)[C@@H](OC)C(=O)[C@H](C)C[C@H](C)/C=C/C=C/C=C/1C [Example 78] | +++ (≥8.5) | +++ (≥8.5) | +++ (≥9) |
| CO[C@H]1C[C@@H]2CC[C@@H](C)[C@@](O)(O2)C(=O)C(=O)N2CCCC[C@H]2C(=O)O[C@H]([C@H](C)C[C@@H]2CC[C@@H](OC(=O)NCCOCCOCCOCCOCCOCCOCCOCCOCCC(=O)NCc3ccc(Cn4nc(-c5ccc6oc(N)nc6c5)c5c(N)ncnc54)cc3)[C@H](OC)C2)CC(=O)[C@H](C)/C=C(\C)[C@@H](O)[C@@H](OC)C(=O)[C@H](C)C[C@H](C)/C=C/C=C/C=C/1C [Example 79] | +++ (≥8.5) | + (7.5 > pIC50 ≥ 6.0) | +++ (≥9) |
| CO[C@H]1C[C@@H]2CC[C@@H](C)[C@@](O)(O2)C(=O)C(=O)N2CCCC[C@H]2C(=O)O[C@H]([C@H](C)C[C@@H]2CC[C@@H](OC(=O)NCCOCCOCCOCCOCCOCCOCCOCCOCCC(=O)NCc3ccc(Cn4nc(-c5ccc6oc(N)nc6c5)c5c(N)ncnc54)cc3)[C@H](OC)C2)C[C@@H](OC)[C@H](C)/C=C(\C)[C@@H](O)[C@@H](OC)C(=O)[C@H](C)C[C@H](C)/C=C/C=C/C=C/1C [Example 81] | ++ (8.5 > pIC50 ≥ 7.5) | − (<6) | +++ (≥9) |
| CO[C@H]1C[C@@H]2CC[C@@H](C)[C@@](O)(O2)C(=O)C(=O)N2CCCC[C@H]2C(=O)O[C@H]([C@H](C)C[C@@H]2CC[C@@H](OC(=O)NCCOCCOCCOCCOCCOCCOCCOCCOCCC(=O)NCc3ccc(Cn4nc(-c5ccc6oc(N)nc6c5)c5c(N)ncnc54)cc3)[C@H](OC)C2)C[C@H](N=[N+]=[N-])[C@H](C)/C=C(\C)[C@@H](O)[C@@H](OC)C(=O)[C@H](C)C[C@H](C)/C=C/C=C/C=C/1C [Example 82] | +++ (≥8.5) | − (<6) | +++ (≥9) |
| CO[C@H]1C[C@@H]2CC[C@@H](C)[C@@](O)(O2)C(=O)C(=O)N2CCCC[C@H]2C(=O)O[C@H]([C@H](C)C[C@@H]2CC[C@@H](OC(=S)NCCOCCOCCOCCOCCOCCOCCOCCOCCC(=O)NCc3ccc(Cn4nc(-c5ccc6oc(N)nc6c5)c5c(N)ncnc54)cc3)[C@H](OC)C2)C[C@@H](O)[C@H](C)/C=C(\C)[C@@H](O)[C@@H](OC)C(=O)[C@H](C)C[C@H](C)/C=C/C=C/C=C/1C [Example 83] | +++ (≥8.5) | ++ (8.5 > pIC50 ≥ 7.5) | +++ (≥9) |
